Measurements: article PMC9699089 (Pathogens, 2022)

Key:
[1] = system: human telomeric sequence F21T G-quadruplex; experiment: FRET melting assay, F21T; assay type: binding; details: compound 2 μM, oligonucleotide 0.2 μM, K+ conditions
Protocol: (§1) These were performed with dual-labeled oligonucleotides mimicking the Plasmodium telomeric sequences FPf1T [FAM-5′(GGGTTTA)3-GGG3′-TAMRA] and FPf8T [FAM-5′(GGGTTCA)3GGG3′-TAMRA], the Trypanosoma 9 and 11 chromosomic sequence FTrypBT (also named FEBR1T) [FAM-5′[…]3′-TAMRA], the human telomeric sequence F21T [FAM-(GGGTTA)3-GGG3′-TAMRA] and the human duplex sequence FdxT [FAM5′-[…]-hexaethyleneglycol-[…]3′-TAMRA] [27, 31, 47]. The oligonucleotides were pre-folded in 10 mM lithium cacodylate buffer (pH 7.2), with 10 mM KCl and 90 mM LiCl (K^+ condition). The FAM emissions were recorded at 516 nm using a 492-nm excitation wavelength in the absence and presence of a single compound as a function of temperature (25 to 95 °C) in 96-well microplates using a Stratagene MX3000P real-time PCR device at a rate of 1 °C∙min-1. Data were normalized between 0 and 1, and the required temperature for half-denaturation of oligonucleotides corresponding to the emission value of 0.5 was taken as the Tm. Each experiment was performed in duplicate with 0.2 µM of labeled oligonucleotide and 2 µM of compound under K^+ condition. For each compound, three independent experiments were carried out.

[2] = system: T. brucei brucei AnTat 1.9; experiment: In vitro antitrypanosomal activity, Alamar Blue assay; assay type: cell-based, Trypanosoma brucei brucei; details: Trypanosoma brucei, slender bloodstream trypomastigotes, AnTat 1.9 strain; mean +/- SD of three independent experiments; read-out: Trypanosoma brucei brucei IC50 Values Trypanos Antat 1.9
Protocol: The effects of the tested compounds on the growth of T. brucei brucei were assessed using an Alamar Blue® assay described by Räz et al. T. brucei brucei AnTat 1.9 ([…], Belgium) was cultured in MEM with Earle's salts, supplemented according to the protocol of Baltz et al. […] All doses were tested in duplicate. Appropriate controls treated with solvents 0.9% NaCl or DMSO or with suramin, pentamidine, eflornithine, and fexinidazole (reference drugs purchased from Sigma Aldrich and Fluorochem, UK) were added to each set of experiments. After 69 h incubation period at 37 °C, 10 μL of the viability marker Alamar Blue (Fisher) was added to each well, and the plates were incubated for 5 h. The plates were read in a PerkinElmer ENSPIRE (Germany) microplate reader using an excitation wavelength of 530 nm and an emission wavelength of 590 nm.

[3] = system: Plasmodium falciparum CQ-sensitive strain 3D7; experiment: In vitro antiplasmodial activity, SYBR Green I fluorescence-based method, strain 3D7; assay type: cell-based; details: CQ-sensitive strain 3D7, 48 h incubation, mean of three independent experiments, read-out: P. falciparum Strains IC50 Values 3D7
Protocol: (§2) The in vitro antiplasmodial activities were tested over concentrations ranging from 39 nM to 40 µM against culture-adapted Plasmodium falciparum reference strains 3D7 and W2. […] These two strains are obtained from the collection of the National Museum of Natural History (Paris, France). The parasites were cultivated in RPMI medium (Sigma Aldrich, Lyon, France) supplemented with 0.5% Albumax I (Life Technologies Corporation, Paisley, UK), hypoxanthine (Sigma Aldrich), and gentamicin (Sigma Aldrich) with human erythrocytes and were incubated at 37 °C in a candle jar, as described previously. The P. falciparum drug susceptibility test was carried out in 96-well flat bottom sterile plates in a final volume of 250 µL. After 48 h incubation period with the drugs, quantities of DNA in treated and control cultures of parasites in human erythrocytes were quantified using the SYBR Green I (Sigma Aldrich) fluorescence-based method. Briefly, after incubation, plates were frozen at -20 °C until use. Plates were then thawed for 2 h at room temperature, and 100 µL of each homogenized culture was transferred to a well of a 96-well flat bottom sterile black plate (Nunc, Inc.) that contained 100 µL of the SYBR Green I lysis buffer (2xSYBR Green, 20 mM Tris base pH 7.5, 5 mM EDTA, 0.008% w/v saponin, 0.08% w/v Triton X-100). […] Plates were incubated for 1 h at room temperature and then read on a fluorescence plate reader (Tecan, Austria) using excitation and emission wavelengths of 485 and 535 nm, respectively.

[4] = system: L. donovani (MHOM/IN/00/DEVI) promastigotes; experiment: In vitro antileishmanial activity on promastigotes, MTT assay; assay type: cell-based; details: Leishmania donovani, 72 h incubation, mean +/- SD of three independent experiments
Protocol: L. donovani (MHOM/IN/00/DEVI) used in this study was provided by the CNR Leishmania (Montpellier, France). The effects of the tested compounds on the growth of L. donovani (MHOM/IN/00/DEVI) promastigotes were assessed by MTT assay. Briefly, promastigotes in log-phase in Schneider’s medium supplemented with 20% fetal calf serum (FCS), 2 mM L-glutamine and antibiotics (100 U/mL penicillin and 100 µg/mL streptomycin), were incubated at an average density of 10^6 parasites/mL in sterile 96-well plates with various concentrations of compounds previously dissolved in DMSO (final concentration less than 0.5% v/v), in duplicate. […] Duplicate assays were performed for each sample. After the 72 h incubation period at 27 °C, parasite metabolic activity was determined. Each well was microscopically examined for precipitate formation. To each well was added 10 µL of 10 mg/mL MTT [3-(4,5-dimethylthiazol-2-yl)-2,5-diphenyltetrazolium bromide)] solution followed by 4 h incubation time. The enzyme reaction was stopped by addition of 100 µL of 50% isopropanol/10% sodium dodecyl sulfate. Plates were vigorously shaken (300 rpm) for 10 min, and the absorbance was measured at 570 nm with 630 nm as reference wavelength in a BIOTEK ELx808 Absorbance Microplate Reader (Agilent Technologies, Les Ulis, France). […] IC50 of the parasite’s growth (half maximal inhibitory concentration or IC50 values) were then calculated from the obtained experimental results using a previously described regression program. IC50 values were calculated from three independent experiments.

[5] = system: Plasmodium telomeric sequence FPf1T G-quadruplex; experiment: FRET melting assay, FPf1T; assay type: binding, Plasmodium falciparum; details: compound 2 μM, oligonucleotide 0.2 μM, K+ conditions
Protocol: as §1

[6] = system: Trypanosoma 9 and 11 chromosomic sequence FTrypBT (FEBR1T) G-quadruplex; experiment: FRET melting assay, FtrypBT; assay type: binding, Trypanosoma brucei brucei; details: compound 2 μM, oligonucleotide 0.2 μM, K+ conditions
Protocol: as §1

[7] = system: Plasmodium falciparum CQ-resistant strain W2; experiment: In vitro antiplasmodial activity, SYBR Green I fluorescence-based method, strain W2; assay type: cell-based; details: CQ-resistant strain W2, 48 h incubation, mean of three independent experiments, read-out: P. falciparum Strains IC50 Values W2
Protocol: as §2

[8] = Cytotoxicity evaluation, MTT assay; assay type: cell-based, human; details: human
Protocol: These cells are a commonly used human hepatocarcinoma-derived cell line that has characteristics similar to those of primary hepatocytes. These cells express many hepatocyte-specific metabolic enzymes, thus enabling the cytotoxicity of tested product metabolites to be evaluated. […] Duplicate assays were performed for each sample. Each well was microscopically examined for precipitate formation before the medium was aspirated from the wells. After aspiration, 100 µL of MTT solution (0.5 mg/mL in medium without FCS) were then added to each well. […] The MTT solution was removed, and DMSO (100 µL) was added to dissolve the resulting blue formazan crystals. Plates were shaken vigorously (300 rpm) for 5 min. The absorbance was measured at 570 nm with 630 nm as reference wavelength in a BIO-TEK ELx808 Absorbance Microplate Reader. DMSO was used as blank and doxorubicin (Sigma Aldrich) as positive control. Cell viability was calculated as percentage of control (cells incubated without compound). The CC50 was determined from the dose-response curve using TableCurve 2D V5.0 software (Systat Software, Palo Alto, CA, USA).

[9] = system: human duplex sequence FdxT; experiment: FRET melting assay, duplex control FdxT; assay type: binding; details: compound 2 μM, oligonucleotide 0.2 μM, K+ conditions
Protocol: as §1

[10] = system: Plasmodium telomeric sequence FPf8T G-quadruplex; experiment: FRET melting assay, FPf8T; assay type: binding, Plasmodium falciparum; details: compound 2 μM, oligonucleotide 0.2 μM, K+ conditions
Protocol: as §1

c1ccc(-c2cc(CNCCCN3CCOCC3)nc3c2ccc2c(-c4ccccc4)cc(CNCCCN4CCOCC4)nc23)cc1 [Compound 1i]
ΔTm F21T [1]: 8.2 °C | IC50 [2]: 290 ± 20 nM | IC50 [3]: 1450 ± 580 nM | IC50 [4]: > 12500 nM | ΔTm FPf1T [5]: 6.7 °C | ΔTm FtrypBT [6]: 6.0 °C | IC50 [7]: 40 ± 10 nM | CC50 at 72 h [8]: 6290 ± 1060 nM | ΔTm FdxT [9]: −1.5 °C | ΔTm FPf8T [10]: 6.7 °C

c1ccc(-c2cc(CNCCN3CCCCC3)nc3c2ccc2c(-c4ccccc4)cc(CNCCN4CCCCC4)nc23)cc1 [Compound 1j]
ΔTm F21T [1]: 7.7 °C | IC50 [2]: 200 ± 20 nM | IC50 [3]: 1590 ± 590 nM | IC50 [4]: 2520 ± 200 nM | ΔTm FPf1T [5]: 5.6 °C | ΔTm FtrypBT [6]: 7.2 °C | IC50 [7]: 2600 ± 550 nM | CC50 at 72 h [8]: 1640 ± 140 nM | ΔTm FdxT [9]: 0.2 °C | ΔTm FPf8T [10]: 7.3 °C

c1ccc(-c2cc(CNCCCN3CCCCC3)nc3c2ccc2c(-c4ccccc4)cc(CNCCCN4CCCCC4)nc23)cc1 [Compound 1k]
ΔTm F21T [1]: 12.0 °C | IC50 [2]: 770 ± 100 nM | IC50 [3]: 3180 ± 680 nM | IC50 [4]: > 12500 nM | ΔTm FPf1T [5]: 12.8 °C | ΔTm FtrypBT [6]: 8.3 °C | IC50 [7]: 1650 ± 360 nM | CC50 at 72 h [8]: 4290 ± 520 nM | ΔTm FdxT [9]: 0.4 °C | ΔTm FPf8T [10]: 14.0 °C

c1ccc(-c2cc(CNCCc3cccnc3)nc3c2ccc2c(-c4ccccc4)cc(CNCCc4cccnc4)nc23)cc1 [Compound 1n]
ΔTm F21T [1]: 4.6 °C | IC50 [2]: 430 ± 30 nM | IC50 [3]: 710 ± 110 nM | IC50 [4]: 2670 ± 800 nM | ΔTm FPf1T [5]: 2.9 °C | ΔTm FtrypBT [6]: 5.2 °C | IC50 [7]: 2540 ± 360 nM | CC50 at 72 h [8]: 3100 ± 190 nM | ΔTm FdxT [9]: −0.3 °C | ΔTm FPf8T [10]: 5.3 °C

c1ccc(-c2cc(CNCCc3ccncc3)nc3c2ccc2c(-c4ccccc4)cc(CNCCc4ccncc4)nc23)cc1 [Compound 1o]
ΔTm F21T [1]: 3.9 °C | IC50 [2]: 210 ± 10 nM | IC50 [3]: 730 ± 190 nM | IC50 [4]: 2690 ± 600 nM | ΔTm FPf1T [5]: 2.9 °C | ΔTm FtrypBT [6]: 5.3 °C | IC50 [7]: 1870 ± 580 nM | CC50 at 72 h [8]: 19100 ± 2110 nM | ΔTm FdxT [9]: −0.3 °C | ΔTm FPf8T [10]: 5.2 °C

c1ccc(-c2cc(CNCCCc3ccncc3)nc3c2ccc2c(-c4ccccc4)cc(CNCCCc4ccncc4)nc23)cc1 [Compound 1p]
ΔTm F21T [1]: 3.6 °C | IC50 [2]: 650 ± 50 nM | IC50 [3]: 1020 ± 350 nM | IC50 [4]: > 12500 nM | ΔTm FPf1T [5]: 3.5 °C | ΔTm FtrypBT [6]: 3.7 °C | IC50 [7]: 145 ± 40 nM | CC50 at 72 h [8]: 3040 ± 190 nM | ΔTm FdxT [9]: −1.1 °C | ΔTm FPf8T [10]: 3.9 °C
